Values after ≈ are worked out from the molar mass of the structure shown.
Legend:
Format in all cases: cell-based
[1] = tested on: Escherichia coli ATCC 25922; assay: MIC, standard microdilution technique; details: for MIC: ATCC25922, read-out: minimum inhibitory concentration (MIC), Strain D
Source text: (§1) The antibacterial activities of the compounds have been determined by standard microdilution technique (National Committee for Clinical Laboratory Standards. 2000. Methods for Dilution Antimicrobial Susceptibility Tests for Bacteria that Grow Aerobically, 5th edition. Approved standard M7-A5. National Committee for Clinical Laboratory Standards, Wayne, Pa.).

[2] = tested on: Staphylococcus aureus 1086; assay: MIC, standard microdilution technique; details: for MIC: read-out: minimum inhibitory concentration (MIC), Strain B
Source text: as §1

[3] = tested on: Staphylococcus aureus 745; assay: MIC, standard microdilution technique; details: for MIC: read-out: minimum inhibitory concentration (MIC), Strain C
Source text: as §1

[4] = tested on: Staphylococcus aureus ATCC 29213; assay: MIC, standard microdilution technique; details: for MIC: ATCC29213, read-out: minimum inhibitory concentration (MIC), Strain A
Source text: as §1

[5] = tested on: Streptococcus pneumoniae 12288; assay: MIC, standard microdilution technique; details: for MIC: read-out: minimum inhibitory concentration (MIC), Strain H
Source text: as §1

[6] = tested on: Streptococcus pneumoniae SL199T; assay: MIC, standard microdilution technique; details: for MIC: read-out: minimum inhibitory concentration (MIC), Strain G
Source text: as §1

[7] = tested on: Streptococcus pneumoniae l/l; assay: MIC, standard microdilution technique; details: for MIC: read-out: minimum inhibitory concentration (MIC), Strain E
Source text: as §1

[8] = tested on: Streptococcus pneumoniae ¼; assay: MIC, standard microdilution technique; details: for MIC: read-out: minimum inhibitory concentration (MIC), Strain F
Source text: as §1

[9] = tested on: Haemophilus influenzae 12214; assay: MIC, standard agar dilution method using HTM medium; details: for MIC: read-out: minimum inhibitory concentration (MIC), Strain K
Source text: as §1, with “biological” for “antibacterial”, “of compounds of” for “of”, “present invention against Haemophilus influenzae” for “compounds”, “agar dilution method using HTM medium” for “microdilution technique”

[10] = tested on: Haemophilus influenzae B1501; assay: as above; details: for MIC: read-out: minimum inhibitory concentration (MIC), Strain M
Source text: as §1, with “biological” for “antibacterial”, “of compounds of” for “of”, “present invention against Haemophilus influenzae” for “compounds”, “agar dilution method using HTM medium” for “microdilution technique”

[11] = tested on: Haemophilus influenzae QK12/87; assay: as above; details: for MIC: read-out: minimum inhibitory concentration (MIC), Strain I
Source text: as §1, with “biological” for “antibacterial”, “of compounds of” for “of”, “present invention against Haemophilus influenzae” for “compounds”, “agar dilution method using HTM medium” for “microdilution technique”

[12] = tested on: Haemophilus influenzae QK50; assay: as above; details: for MIC: read-out: minimum inhibitory concentration (MIC), Strain L
Source text: as §1, with “biological” for “antibacterial”, “of compounds of” for “of”, “present invention against Haemophilus influenzae” for “compounds”, “agar dilution method using HTM medium” for “microdilution technique”

Compound	minimum inhibitory concentration (MIC), Strain D [1] [µg/mL]	minimum inhibitory concentration (MIC), Strain B [2]	minimum inhibitory concentration (MIC), Strain C [3] [µg/mL]	minimum inhibitory concentration (MIC), Strain A [4]	minimum inhibitory concentration (MIC), Strain H [5] [µg/mL]	minimum inhibitory concentration (MIC), Strain G [6]	minimum inhibitory concentration (MIC), Strain E [7]	minimum inhibitory concentration (MIC), Strain F [8]	minimum inhibitory concentration (MIC), Strain K [9] [µg/mL]	minimum inhibitory concentration (MIC), Strain M [10] [µg/mL]	minimum inhibitory concentration (MIC), Strain I [11] [µg/mL]	minimum inhibitory concentration (MIC), Strain L [12] [µg/mL]	further results
CC[C@H]1OC(=O)[C@H](C)C(=O)[C@H](C)[C@@H](O[C@@H]2O[C@H](C)C[C@H](N(C)C)[C@H]2O)[C@](C)(OC)C[C@@H](C)C(=O)[C@H](C)[C@H]2[C@@H](SCCNC(=O)c3cccc4cccnc34)C(=O)O[C@@]21C (single isomer, unassigned) [Example 49]	>32	<=0.06 μg/ml	>32	<=0.06 μg/ml	16 (≈ 19 µM)	2 µg/mL (≈ 2.38 µM)	<=0.06 μg/ml	<=0.06 μg/ml	16 (≈ 19 µM)	4 (≈ 4.75 µM)	4 (≈ 4.75 µM)	4 (≈ 4.75 µM)	–
CC[C@H]1OC(=O)[C@H](C)C(=O)[C@H](C)[C@@H](O[C@@H]2O[C@H](C)C[C@H](N(C)C)[C@H]2O)[C@](C)(OC)C[C@@H](C)C(=O)[C@H](C)[C@H]2[C@@H](SCCNC(=O)c3ccc(-n4cccn4)nc3)C(=O)O[C@@]21C (single isomer, unassigned) [Example 50]	>32	0.125 µg/mL (≈ 0.146 µM)	>32	0.25 µg/mL (≈ 0.291 µM)	>32	32 µg/mL (≈ 37.3 µM)	<=0.06 μg/ml	32 µg/mL (≈ 37.3 µM)	16 (≈ 18.6 µM)	4 (≈ 4.66 µM)	8 (≈ 9.32 µM)	8 (≈ 9.32 µM)	–
CC[C@H]1OC(=O)[C@H](C)C(=O)[C@H](C)[C@@H](O[C@@H]2O[C@H](C)C[C@H](N(C)C)[C@H]2O)[C@](C)(OC)C[C@@H](C)C(=O)[C@H](C)[C@H]2[C@@H](SCC(=O)Nc3ccccc3-c3ccccc3OC)C(=O)O[C@@]21C (single isomer, unassigned) [Example 53]	>32	0.25 µg/mL (≈ 0.283 µM)	>32	0.5 µg/mL (≈ 0.566 µM)	>32	16 µg/mL (≈ 18.1 µM)	<=0.06 μg/ml	1 µg/mL (≈ 1.13 µM)	16 (≈ 18.1 µM)	16 (≈ 18.1 µM)	8 (≈ 9.06 µM)	8 (≈ 9.06 µM)	–
CC[C@H]1OC(=O)[C@@](C)(F)C(=O)[C@H](C)[C@@H](O[C@@H]2O[C@H](C)C[C@H](N(C)C)[C@H]2O)[C@](C)(OC)C[C@@H](C)C(=O)[C@H](C)[C@H]2[C@@H](SCCn3cnc4c(N)ncnc43)C(=O)O[C@@]21C (single isomer, unassigned) [Example 56]	32 (≈ 38.9 µM)	<=0.06 μg/ml	>32	<=0.06 μg/ml	1 (≈ 1.22 µM)	<=0.06 μg/ml	<=0.06 μg/ml	<=0.06 μg/ml	1 (≈ 1.22 µM)	0.5 (≈ 0.608 µM)	1 (≈ 1.22 µM)	0.5 (≈ 0.608 µM)	–
CC[C@H]1OC(=O)[C@@](C)(F)C(=O)[C@H](C)[C@@H](O[C@@H]2O[C@H](C)C[C@H](N(C)C)[C@H]2O)[C@](C)(OC)C[C@@H](C)C(=O)[C@H](C)[C@H]2[C@@H]([S+]([O-])CCCn3cnc4c(N)ncnc43)C(=O)O[C@@]21C (single isomer, unassigned) [Example 57]	>32	2 µg/mL (≈ 2.34 µM)	>32	2 µg/mL (≈ 2.34 µM)	32 (≈ 37.5 µM)	1 µg/mL (≈ 1.17 µM)	<=0.06 μg/ml	0.125 µg/mL (≈ 0.147 µM)	8 (≈ 9.38 µM)	4 (≈ 4.69 µM)	4 (≈ 4.69 µM)	8 (≈ 9.38 µM)	–
CC[C@H]1OC(=O)[C@H](C)[C@@H](O[C@H]2C[C@@](C)(OC)[C@@H](O)[C@H](C)O2)[C@H](C)[C@@H](O[C@@H]2O[C@H](C)C[C@H](N(C)C)[C@H]2O)[C@](C)(OC)C[C@@H](C)C(=O)[C@H](C)[C@@H](O)[C@]1(C)O [Clarithromycin, reference compound]	–	–	–	–	–	–	–	–	–	–	–	–	MIC [1]: > 32 µg/mL; MIC [2]: > 32 µg/mL; MIC [3]: > 32 µg/mL; MIC [4]: 0.125 µg/mL (≈ 0.167 µM); MIC [5]: > 32 µg/mL; MIC [6]: > 32 µg/mL; MIC [7]: ≤ 0.06 µg/mL; MIC [8]: 32 µg/mL (≈ 42.8 µM); MIC [9]: 4 µg/mL (≈ 5.35 µM); MIC [10]: 4 µg/mL (≈ 5.35 µM); MIC [11]: 4 µg/mL (≈ 5.35 µM); MIC [12]: 8 µg/mL (≈ 10.7 µM)
CC[C@H]1OC(=O)[C@H](C)[C@@H](O[C@H]2C[C@@](C)(OC)[C@@H](O)[C@H](C)O2)[C@H](C)[C@@H](O[C@@H]2O[C@H](C)C[C@H](N(C)C)[C@H]2O)[C@](C)(O)C[C@@H](C)C(=O)[C@H](C)[C@@H](O)[C@]1(C)O [Erythromycin, reference compound]	–	–	–	–	–	–	–	–	–	–	–	–	MIC [1]: > 32 µg/mL; MIC [2]: > 32 µg/mL; MIC [3]: > 32 µg/mL; MIC [4]: 0.25 µg/mL (≈ 0.341 µM); MIC [5]: > 32 µg/mL; MIC [6]: > 32 µg/mL; MIC [7]: ≤ 0.06 µg/mL; MIC [8]: > 32 µg/mL; MIC [9]: 4 µg/mL (≈ 5.45 µM); MIC [10]: 4 µg/mL (≈ 5.45 µM); MIC [11]: 4 µg/mL (≈ 5.45 µM); MIC [12]: 8 µg/mL (≈ 10.9 µM)
CC[C@H]1OC(=O)[C@H](C)C(=O)[C@H](C)[C@@H](O[C@@H]2O[C@H](C)C[C@H](N(C)C)[C@H]2O)[C@](C)(OC)C[C@@H](C)C(=O)[C@H](C)[C@H]2[C@@H](SCC(=O)c3ccc4c(c3)CCC(=O)N4)C(=O)O[C@@]21C [Example 6]	>32	1 µg/mL (≈ 1.2 µM)	>32	1 µg/mL (≈ 1.2 µM)	>32	32 µg/mL (≈ 38.5 µM)	<=0.06 μg/ml	>32 µg/mL	32 (≈ 38.5 µM)	32 (≈ 38.5 µM)	>32	32 (≈ 38.5 µM)	–
CC[C@H]1OC(=O)[C@H](C)C(=O)[C@H](C)[C@@H](O[C@@H]2O[C@H](C)C[C@H](N(C)C)[C@H]2O)[C@](C)(OC)C[C@@H](C)C(=O)[C@H](C)[C@H]2[C@@H](SCC(=O)c3ccccn3)C(=O)O[C@@]21C [Example 7]	>32	0.5 µg/mL (≈ 0.655 µM)	>32	1 µg/mL (≈ 1.31 µM)	>32	32 µg/mL (≈ 41.9 µM)	<=0.06 μg/ml	32 µg/mL (≈ 41.9 µM)	32 (≈ 41.9 µM)	32 (≈ 41.9 µM)	32 (≈ 41.9 µM)	32 (≈ 41.9 µM)	–
CC[C@H]1OC(=O)[C@H](C)C(=O)[C@H](C)[C@@H](O[C@@H]2O[C@H](C)C[C@H](N(C)C)[C@H]2O)[C@](C)(OC)C[C@@H](C)C(=O)[C@H](C)[C@H]2[C@@H](SCCN(C)CCn3cnc4c(N)ncnc43)C(=O)O[C@@]21C [Example 9]	>32	1 µg/mL (≈ 1.16 µM)	>32	1 µg/mL (≈ 1.16 µM)	32 (≈ 37.1 µM)	8 µg/mL (≈ 9.28 µM)	<=0.06 μg/ml	0.5 µg/mL (≈ 0.58 µM)	16 (≈ 18.6 µM)	4 (≈ 4.64 µM)	8 (≈ 9.28 µM)	8 (≈ 9.28 µM)	–

From patent publication US6995143B2, “Macrolides with antibacterial activity” (Basilea Pharmaceutica AG, priority 2002, dated 2006)
